Where two headings read alike, the source gives them in different places.
How the values were obtained:
[1] = biological target: norepinephrine transporter (Homo sapiens, UniProt P23975); experiment: NE uptake: displacement of norephinephrine ligands in vitro (methods of Galli et al.); format: binding
serotonin transporter = serotonin transporter (Homo sapiens, UniProt P31645); experiment: 5-HT uptake: displacement of serotonin ligands in vitro (methods of Gu et al.); format: binding
dopamine transporter = dopamine transporter (Homo sapiens, UniProt Q01959); experiment: DA uptake: displacement of dopamine ligands in vitro (methods of Gu et al.); conditions: DA Uptake, Uptake Profile (IC50, nM), displacement of dopamine ligands in vitro
Chain of dopamine transporter (Q01959 whole entry): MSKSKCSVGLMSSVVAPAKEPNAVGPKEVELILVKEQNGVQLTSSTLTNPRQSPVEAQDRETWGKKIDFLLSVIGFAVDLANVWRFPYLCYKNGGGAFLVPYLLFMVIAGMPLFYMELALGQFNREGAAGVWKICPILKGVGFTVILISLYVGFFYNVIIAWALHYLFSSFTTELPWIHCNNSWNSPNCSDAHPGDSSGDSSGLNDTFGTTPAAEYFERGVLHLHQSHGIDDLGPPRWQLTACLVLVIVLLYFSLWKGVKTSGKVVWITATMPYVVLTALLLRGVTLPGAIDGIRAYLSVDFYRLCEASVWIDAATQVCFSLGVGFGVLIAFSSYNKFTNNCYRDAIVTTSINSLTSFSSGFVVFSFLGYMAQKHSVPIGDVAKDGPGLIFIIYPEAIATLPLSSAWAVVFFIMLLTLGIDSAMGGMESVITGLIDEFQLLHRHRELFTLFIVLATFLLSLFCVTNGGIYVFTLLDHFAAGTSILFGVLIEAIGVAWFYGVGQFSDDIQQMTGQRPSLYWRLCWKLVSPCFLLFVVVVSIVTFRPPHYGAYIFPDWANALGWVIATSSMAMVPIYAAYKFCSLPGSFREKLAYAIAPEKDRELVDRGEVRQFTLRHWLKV

[2] = NE Uptake, Uptake Profile (IC50, nM)
[3] = displacement of serotonin ligands in vitro, read-out: 5-HT Uptake, Uptake Profile (IC50)
[4] = read-out: NE Uptake, Uptake Profile (IC50)

Chain of norepinephrine transporter (P23975 whole entry): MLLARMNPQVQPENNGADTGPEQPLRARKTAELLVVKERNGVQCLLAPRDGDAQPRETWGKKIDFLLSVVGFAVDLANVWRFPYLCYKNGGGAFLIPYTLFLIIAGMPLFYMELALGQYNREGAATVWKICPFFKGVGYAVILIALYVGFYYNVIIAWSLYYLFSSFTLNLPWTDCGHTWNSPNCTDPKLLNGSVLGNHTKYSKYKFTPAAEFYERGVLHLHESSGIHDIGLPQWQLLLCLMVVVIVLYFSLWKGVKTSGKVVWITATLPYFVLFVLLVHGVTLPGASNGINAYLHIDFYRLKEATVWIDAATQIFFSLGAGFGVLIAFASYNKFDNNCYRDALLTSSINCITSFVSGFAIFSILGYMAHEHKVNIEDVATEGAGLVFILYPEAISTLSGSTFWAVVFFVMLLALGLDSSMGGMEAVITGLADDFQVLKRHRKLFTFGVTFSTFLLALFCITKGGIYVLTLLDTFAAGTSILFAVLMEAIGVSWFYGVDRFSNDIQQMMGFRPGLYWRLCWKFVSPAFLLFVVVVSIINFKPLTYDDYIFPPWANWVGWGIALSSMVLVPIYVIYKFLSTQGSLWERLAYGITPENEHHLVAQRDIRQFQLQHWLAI
Chain of serotonin transporter (P31645 whole entry): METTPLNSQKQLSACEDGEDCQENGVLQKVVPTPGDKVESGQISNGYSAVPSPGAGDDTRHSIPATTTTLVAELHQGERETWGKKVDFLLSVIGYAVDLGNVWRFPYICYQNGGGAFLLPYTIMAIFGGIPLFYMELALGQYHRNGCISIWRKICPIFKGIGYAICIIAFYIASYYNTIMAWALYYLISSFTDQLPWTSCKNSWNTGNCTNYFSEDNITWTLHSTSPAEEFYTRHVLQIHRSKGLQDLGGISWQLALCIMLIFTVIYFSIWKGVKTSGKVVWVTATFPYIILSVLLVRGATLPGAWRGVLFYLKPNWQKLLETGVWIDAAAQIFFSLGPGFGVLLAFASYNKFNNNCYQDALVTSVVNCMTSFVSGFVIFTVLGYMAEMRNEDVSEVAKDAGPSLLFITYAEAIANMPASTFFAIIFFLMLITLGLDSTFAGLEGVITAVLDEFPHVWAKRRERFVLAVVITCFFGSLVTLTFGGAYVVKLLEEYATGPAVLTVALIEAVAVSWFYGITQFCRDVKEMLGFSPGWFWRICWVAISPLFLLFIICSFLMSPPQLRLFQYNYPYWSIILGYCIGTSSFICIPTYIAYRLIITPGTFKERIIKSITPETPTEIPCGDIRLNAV

| SMILES | IC50 [1, 2] [nM] | IC50 (serotonin transporter; [3]) [nM] | IC50 (dopamine transporter) [nM] | IC50 (serotonin transporter; 5-HT Uptake, Uptake Profile (IC50, nM)) [nM] | IC50 [1, 4] [nM] |
| --- | --- | --- | --- | --- | --- |
| COc1ccc(C2(CN3CCC[C@@H](COc4ccc(OC(F)(F)F)cc4)C3)CCC2)cc1 [compound 170, (R)-1-[1-(4-Methoxy-phenyl)-cyclobutylmethyl]-3-(4-trifluoromethoxy-phenoxymethyl)-piperidine] | < 1000 | < 1000 | < 10 | – | – |
| COc1ccc(C2(CN3CCC[C@H](COc4ccc(OC(F)(F)F)cc4)C3)CCC2)cc1 [compound 171, (S)-1-[1-(4-Methoxy-phenyl)-cyclobutylmethyl]-3-(4-trifluoromethoxy-phenoxymethyl)-piperidine] | < 1000 | < 1000 | < 10 | – | – |
| FC(F)(F)c1ccc(OCC2CCCN(CCc3c[nH]c4ccccc34)C2)cc1 (stereo not drawn) [compound 180, 3-{2-[3-(4-Trifluoromethyl-phenoxymethyl)-piperidin-1-yl]-ethyl}-1H-indole] | < 1000 | < 1000 | < 1000 | – | – |
| FC(F)(F)c1ccc(OCC2CCCN(CCc3ccc(-c4ccccc4)cc3)C2)cc1 (stereo not drawn) [compound 181, 1-(2-Biphenyl-4-yl-ethyl)-3-(4-trifluoromethyl-phenoxymethyl)-piperidine] | < 1000 | – | > 1000 | < 100 | – |
| FC(F)(F)c1cc(COC2CCCN(CC3(c4ccc(Cl)cc4)CCC3)C2)cc(C(F)(F)F)c1 (stereo not drawn) [compound 189, 3-(3,5-Bis-trifluoromethyl-benzyloxy)-1-[1-(4-chloro-phenyl)-cyclobutylmethyl]-piperidine] | – | > 1000 | > 1000 | – | > 1000 |
| OC(CN1CCCC(COc2ccc(C(F)(F)F)cc2)C1)(c1ccccc1)C1CCCCC1 (stereo not drawn) [compound 191, 1-Cyclohexyl-1-phenyl-2-[3-(4-trifluoromethyl-phenoxymethyl)-piperidin-1-yl]-ethanol] | – | > 1000 | > 1000 | – | > 1000 |
| COC(CN1CCC[C@@H](CCc2ccccc2)C1)c1ccc(Cl)cc1 (stereo partly drawn) [compound 196, 1-[2-(4-Chloro-phenyl)-2-methoxy-ethyl]-3-(R)-phenethyl-piperidine] | < 100 | < 10 | < 100 | – | – |
| CC(O)(CN1CCC[C@@H](CCc2ccccc2)C1)c1ccc(Cl)cc1 (stereo partly drawn) [compound 197, 2-(4-Chloro-phenyl)-1-(3 (R)-phenethyl-piperidin-1-yl)-propan-2-ol] | < 1000 | < 10 | < 1000 | – | – |
| OC(CN1CCCC(CCc2ccc(OC(F)(F)F)cc2)C1)c1ccc(Cl)cc1 (stereo not drawn) [compound 201] | < 1000 | < 1000 | < 10 | – | – |
| OC(CN1CCCC(COc2ccc(C(F)(F)F)cc2)C1)C1(c2ccc(OC(F)(F)F)cc2)CCC1 (stereo not drawn) [compound 206, 1-[1-(4-Trifluoromethoxy-phenyl)-cyclobutyl]-2-[3-(4-trifluoromethyl-phenoxymethyl)-piperidin-1-yl]-ethanol] | < 1000 | < 1000 | < 100 | – | – |
| OC(CN1CCCC(COc2ccc(OC(F)(F)F)cc2)C1)C1(c2ccc(Cl)cc2)CCC1 (stereo not drawn) [compound 210, 1-[1-(4-Chloro-phenyl)-cyclobutyl]-2-[3-(4-trifluoromethoxy-phenoxymethyl)-piperidin-1-yl]-ethanol] | < 100 | < 1000 | < 10 | – | – |
| OC(CN1CCCC(COc2ccc(OC(F)(F)F)cc2)C1)C1(c2ccc(OC(F)(F)F)cc2)CCC1 (stereo not drawn) [compound 212, 2-[3-(4-Trifluoromethoxy-phenoxymethyl)-piperidin-1-yl]-1-[1-(4-trifluoromethoxy-phenyl)-cyclobutyl]-ethanol] | < 1000 | < 1000 | < 100 | – | – |
| CNC(CN1CCC[C@@H](CCc2ccccc2)C1)c1ccc(Cl)cc1 (stereo partly drawn) [compound 213, [1-(4-Chloro-phenyl)-2-(3(R)-phenethyl-piperidin-1-yl)-ethyl]-methyl-amine] | < 1000 | < 100 | < 1000 | – | – |
